# Experimental data: the supplement of paper PMC13380429
# Columns and labels:
# Details in all cases: 72 h
# [1] = system: HepG2; test: relative viability EC50 (midpoint between 100% and the lowest measured viability); higher = less toxic
# [2] = system: U2OS; test: as above
# [3] = system: Caco-2; test: as above
# [4] = system: HepG2; test: drug sensitivity score (DSS) for viability; higher = more toxic; extreme values may be limits of the assay
# [5] = system: Vero E6; test: as above
# [6] = system: U2OS; test: as above
# [7] = system: Calu-3; test: as above
# [8] = system: Caco-2; test: as above
# [9] = system: HepG2; test: cell viability relative to DMSO; higher = less toxic
# [10] = system: Vero E6; test: as above
# [11] = system: U2OS; test: as above
# [12] = system: Calu-3; test: as above
# [13] = system: Caco-2; test: as above
# [14] = system: Vero E6; test: relative viability EC50 (midpoint between 100% and the lowest measured viability); higher = less toxic
# [15] = system: Calu-3; test: as above
SMILES,relative viability EC50 [1],relative viability EC50 [2],relative viability EC50 [3],drug sensitivity score [4],drug sensitivity score [5],drug sensitivity score [6],drug sensitivity score [7],drug sensitivity score [8],cell viability ([9]; 1 nM),cell viability ([9]; 10 nM),cell viability ([9]; 100 nM),cell viability ([9]; 1000 nM),cell viability ([9]; 10000 nM),cell viability ([10]; 1 nM),cell viability ([10]; 10 nM),cell viability ([10]; 100 nM),cell viability ([10]; 1000 nM),cell viability ([10]; 10000 nM),cell viability ([11]; 1 nM),cell viability ([11]; 10 nM),cell viability ([11]; 100 nM),cell viability ([11]; 1000 nM),cell viability ([11]; 10000 nM),cell viability ([12]; 1 nM),cell viability ([12]; 10 nM),cell viability ([12]; 100 nM),cell viability ([12]; 1000 nM),cell viability ([12]; 10000 nM),cell viability ([13]; 1 nM),cell viability ([13]; 10 nM),cell viability ([13]; 100 nM),cell viability ([13]; 1000 nM),cell viability ([13]; 10000 nM),relative viability EC50 [14],relative viability EC50 [15]
COC(=O)Nc1ccc(-c2nc(N3CCOCC3)c3cnn(C4CCN(C(=O)OC)CC4)c3n2)cc1 [WYE-354],3.34 µM,> 10 µM,1.38 µM,2.8,2.2,0.4,3.8,5,104%,107%,94.8%,102%,44.8%,97.4%,99.7%,91.8%,96.4%,64.8%,99.3%,98.3%,104%,98.6%,84.8%,93.6%,91.4%,95.8%,92.2%,52.2%,98.3%,99.3%,97.3%,83.1%,48.3%,–,–
CC1=C(C(=O)OC(C)C)C(c2cccc([N+](=O)[O-])c2)C(C(=O)OC2CN(C(c3ccccc3)c3ccccc3)C2)=C(N)N1 (centres undefined) [azelnidipine],–,> 10 µM,> 10 µM,–,0,0,0,0,–,–,–,–,–,91.4%,97.5%,92.1%,96.2%,88.1%,101%,97.5%,98.3%,98.1%,90.4%,92.8%,106%,101%,96.8%,109%,89%,94.8%,100%,87.1%,87.6%,> 10 µM,> 10 µM
CCN(CCO)CCCOc1ccc2c(Nc3cc(CC(=O)Nc4cccc(F)c4)[nH]n3)ncnc2c1 [barasertib-HQPA],–,> 10 µM,> 10 µM,6.9,0,0,0,0.6,99.5%,99.7%,77.8%,72.8%,78.8%,93.8%,96%,98.2%,91%,88.2%,94.4%,95.8%,93.7%,91.7%,87%,95.1%,93%,97.2%,92.6%,94.2%,93%,100%,78.4%,91.6%,88.4%,> 10 µM,> 10 µM
O=c1[nH]c(=O)n([C@H]2C[C@H](O)[C@@H](CO)O2)cc1Br [broxuridine],–,> 10 µM,> 10 µM,2.3,1,0,0,0,97%,97.1%,98.1%,95.3%,66.7%,110%,107%,99%,97.8%,79%,100%,98%,100%,96.4%,97.5%,94.2%,86.5%,102%,95.9%,101%,96%,85.3%,91.6%,94.4%,106%,> 10 µM,> 10 µM
CCCCc1nc(Cl)c(C(=O)O)n1Cc1ccc(-c2ccccc2-c2nn[nH]n2)cc1 [carboxylosartan],> 10 µM,> 10 µM,> 10 µM,0,0,0,–,0,99.6%,102%,94.5%,113%,95.7%,103%,109%,98.3%,104%,96.5%,103%,102%,101%,98.7%,102%,–,–,–,–,–,96.6%,98.8%,95.5%,100%,96.9%,> 10 µM,–
CCCCCCOC(=O)NC(=N)c1ccc(NCc2nc3cc(C(=O)N(CCC(=O)OCC)c4ccccn4)ccc3n2C)cc1 [dabigatran-etexilate],–,> 10 µM,> 10 µM,0.7,0,0,0.1,1.5,91.6%,106%,88.9%,116%,72.7%,97.8%,103%,99.4%,102%,108%,97.7%,92.9%,101%,95.9%,96.9%,101%,82.3%,109%,103%,84.3%,96.5%,88.5%,104%,93.8%,78.1%,> 10 µM,> 10 µM
Cc1cc(N)c2ccccc2[n+]1CCCCCCCCCC[n+]1c(C)cc(N)c2ccccc21 [dequalinium],1.38 µM,–,2.16 µM,6.4,0,1.8,0.8,4.8,98.6%,100%,92.7%,76.2%,33.8%,101%,104%,104%,102%,87.4%,104%,102%,96.2%,102%,60.1%,101%,92.7%,104%,107%,73.5%,96.9%,94.4%,98.9%,92.2%,36.4%,> 10 µM,–
C/C1=C/C[C@@H](/C(C)=C/c2csc(C)n2)OC(=O)C[C@H](O)C(C)(C)C(=O)[C@H](C)[C@@H](O)[C@@H](C)CCC1 [epothilone-D],0.0074 µM,0.0075 µM,0.0202 µM,31.7,21.5,29.4,14.8,17.4,91.8%,50.6%,22.2%,15.8%,22.2%,99.8%,83.9%,45.1%,25.3%,46.8%,97.6%,53.1%,29.5%,23.2%,41.5%,110%,84%,61.9%,55.2%,54.1%,101%,83.1%,53.9%,46.3%,56.9%,0.0363 µM,–
CCCCc1ncc(/C=C(\Cc2cccs2)C(=O)O)n1Cc1ccc(C(=O)O)cc1 [eprosartan],–,> 10 µM,> 10 µM,–,0,0,0,0,–,–,–,–,–,104%,97.7%,100%,97.1%,101%,100%,101%,99.3%,102%,95.9%,93.8%,94.9%,101%,106%,109%,98.1%,106%,105%,110%,103%,> 10 µM,> 10 µM
CC[C@@]1(O)C(=O)OCc2c1cc1n(c2=O)Cc2c-1nc1cc(F)c(C)c3c1c2[C@@H](N)CC3 [exatecan-mesylate],0.0038 µM,0.127 µM,0.0178 µM,36.4,20.5,20.9,–,25.8,65.8%,40.5%,20.8%,2.3%,3.9%,110%,91.8%,60.6%,15.9%,0.4%,102%,92%,56.9%,17%,4.1%,–,–,–,–,–,90.7%,72.7%,32.7%,21%,20.7%,0.158 µM,–
O=C(CCCN1CCC(O)(c2ccc(Cl)cc2)CC1)c1ccc(F)cc1 [haloperidol],–,> 10 µM,> 10 µM,–,0,0,0,0,–,–,–,–,–,101%,97.3%,95.1%,98.9%,94.1%,102%,104%,97.6%,103%,99.1%,99.5%,97.9%,92.6%,104%,114%,110%,104%,97.1%,100%,103%,> 10 µM,> 10 µM
C[C@]1(O)C[C@@H](c2nc(-c3ccc4ccc(-c5ccccc5)nc4c3)c3c(N)nccn32)C1 [linsitinib],–,–,0.674 µM,7.5,0,3.3,0,6.3,90.5%,87%,95.2%,62%,54.8%,99.9%,98.9%,104%,96.5%,109%,101%,103%,92.7%,82.4%,67.9%,97.7%,104%,101%,116%,104%,96.6%,98.9%,84.7%,75.7%,47.2%,> 10 µM,> 10 µM
CCOC(=O)O[C@]1(C(=O)OCCl)CC[C@H]2[C@@H]3CCC4=CC(=O)C=C[C@]4(C)[C@H]3[C@@H](O)C[C@@]21C [loteprednol],–,> 10 µM,> 10 µM,–,0,0,0.6,1.6,–,–,–,–,–,102%,100%,102%,99.2%,96%,105%,102%,100%,93.4%,98.1%,98.8%,100%,103%,87.7%,95.2%,112%,104%,99.1%,92.1%,77.9%,> 10 µM,> 10 µM
COC(F)(F)C(Cl)Cl [methoxyflurane],> 10 µM,> 10 µM,> 10 µM,0,0,0,–,0,103%,96.3%,100%,94%,109%,104%,102%,103%,96.7%,96.3%,99.8%,97.3%,98.5%,95.3%,100%,–,–,–,–,–,96.2%,98.1%,96.9%,99.8%,94.4%,> 10 µM,–
O=C(O)c1ccccc1S [o-mercapto-benzoic-acid],> 10 µM,> 10 µM,> 10 µM,0,0,0,–,0,99.7%,91.5%,89.9%,101%,112%,92.2%,97.9%,96.2%,105%,106%,97.9%,94.1%,95.9%,94.8%,109%,–,–,–,–,–,98%,87.2%,86.4%,102%,99.4%,> 10 µM,–
